Values quoted from earlier work, collected in patent US4960900A, “Oxyimino derivatives of thiazole, method of preparation and use in therapy” (priority 1987, dated 1990).
“Also recorded” adds a separate entry of the source.

What was measured:
[1] = prior art documents; cited from earlier work
[2] = prior art documents; cited from earlier work; remark: listed apart in the source

Row | Compound | anticonvulsant properties (prior art) [1] | antihypoxic properties (prior art) [2]
1 | Cc1ncsc1CO [5-hydroxymethyl-4-methylthiazole] | devoid of anticonvulsant effects | –
2 | Cc1ncsc1C(C)(C)O [2-(4-methylthiazol-5-yl)propan-2-ol] | has anticonvulsant and antihypoxic properties | has anticonvulsant and antihypoxic properties
3 | Cc1ncsc1C(C)O (centres unmarked) [1-(4-methylthiazol-5-yl)ethanol] | possesses anticonvulsant properties; also recorded: is an anticonvulsant | devoid of beneficial antihypoxic effects
